In US8153645B2, “Treating pain using selective antagonists of persistent sodium current” (Allergan, Inc., priority 2003, dated 2012):

What was measured:
[1] = test system: tactile allodynia; assay: Spinal nerve ligation (Chung) model of neuropathic pain, tactile allodynia by von Frey hairs; assay type: in vivo; settings: rat, 10 mg/kg i.p., 30 minutes after dosing, FIG. 6
Description: Paw withdrawal threshold (gram force) was determined using von Frey filament stimulation and the Dixon's up-down method. Allodynic response was measured at baseline (0 min) and at 15, 30, 60 and 120 min after of 10 mg/kg IP injection of Compound 1 or vehicle control. Percent reversal of allodynia compared with non-injected rats was calculated. Six rats were used at each dose. Data were analyzed by analysis of variance and Dunnett's test reversal of allodynia was considered significant if P<0.05
Compound 1 was tested in a rodent model of neuropathic pain known to be predictive of clinical activity, see, e.g., Kim & Chung, supra, (1992). Following ligation of two spinal nerves, the animals developed sensitivity to normally non-painful stimuli such as touch. The ability of Compound 1 to reverse this sensitivity, called allodynia, was tested 30 minutes after dosing by intraperitoneal administration.
The animal model used involved the surgical ligation of the L5 (and optionally the L6) spinal nerves on one side in experimental animals. […]
Tactile allodynia was measured prior to and 30 minutes after drug administration using von Frey hairs, which are a series of fine hairs with incremental differences in stiffness. […] The applied force has been calculated to range from 0.41 to 15.1 grams. […]

[2] = target: T1, Nav1.3 sodium channel (Homo sapiens, UniProt Q9NY46)
[3] = target: T1, Nav1.3 sodium channel; assay: High-throughput persistent sodium current assay (VIPR, FRET dyes): Na+-dependent depolarization of HEK-Nav1.3 cells; assay type: cell-based; design: expressed in transfected cells; host or cells: HEK-293 (human embryonic kidney) cells, G418-selected (HEK-Nav1.3); settings: 10 μM tetracaine, HEK-Nav1.3, FIG. 2
[4] = 3 μM, 200 msec pulse to 0 mV from -90 mV, FIG. 4

T1 sequence (Q9NY46 whole entry): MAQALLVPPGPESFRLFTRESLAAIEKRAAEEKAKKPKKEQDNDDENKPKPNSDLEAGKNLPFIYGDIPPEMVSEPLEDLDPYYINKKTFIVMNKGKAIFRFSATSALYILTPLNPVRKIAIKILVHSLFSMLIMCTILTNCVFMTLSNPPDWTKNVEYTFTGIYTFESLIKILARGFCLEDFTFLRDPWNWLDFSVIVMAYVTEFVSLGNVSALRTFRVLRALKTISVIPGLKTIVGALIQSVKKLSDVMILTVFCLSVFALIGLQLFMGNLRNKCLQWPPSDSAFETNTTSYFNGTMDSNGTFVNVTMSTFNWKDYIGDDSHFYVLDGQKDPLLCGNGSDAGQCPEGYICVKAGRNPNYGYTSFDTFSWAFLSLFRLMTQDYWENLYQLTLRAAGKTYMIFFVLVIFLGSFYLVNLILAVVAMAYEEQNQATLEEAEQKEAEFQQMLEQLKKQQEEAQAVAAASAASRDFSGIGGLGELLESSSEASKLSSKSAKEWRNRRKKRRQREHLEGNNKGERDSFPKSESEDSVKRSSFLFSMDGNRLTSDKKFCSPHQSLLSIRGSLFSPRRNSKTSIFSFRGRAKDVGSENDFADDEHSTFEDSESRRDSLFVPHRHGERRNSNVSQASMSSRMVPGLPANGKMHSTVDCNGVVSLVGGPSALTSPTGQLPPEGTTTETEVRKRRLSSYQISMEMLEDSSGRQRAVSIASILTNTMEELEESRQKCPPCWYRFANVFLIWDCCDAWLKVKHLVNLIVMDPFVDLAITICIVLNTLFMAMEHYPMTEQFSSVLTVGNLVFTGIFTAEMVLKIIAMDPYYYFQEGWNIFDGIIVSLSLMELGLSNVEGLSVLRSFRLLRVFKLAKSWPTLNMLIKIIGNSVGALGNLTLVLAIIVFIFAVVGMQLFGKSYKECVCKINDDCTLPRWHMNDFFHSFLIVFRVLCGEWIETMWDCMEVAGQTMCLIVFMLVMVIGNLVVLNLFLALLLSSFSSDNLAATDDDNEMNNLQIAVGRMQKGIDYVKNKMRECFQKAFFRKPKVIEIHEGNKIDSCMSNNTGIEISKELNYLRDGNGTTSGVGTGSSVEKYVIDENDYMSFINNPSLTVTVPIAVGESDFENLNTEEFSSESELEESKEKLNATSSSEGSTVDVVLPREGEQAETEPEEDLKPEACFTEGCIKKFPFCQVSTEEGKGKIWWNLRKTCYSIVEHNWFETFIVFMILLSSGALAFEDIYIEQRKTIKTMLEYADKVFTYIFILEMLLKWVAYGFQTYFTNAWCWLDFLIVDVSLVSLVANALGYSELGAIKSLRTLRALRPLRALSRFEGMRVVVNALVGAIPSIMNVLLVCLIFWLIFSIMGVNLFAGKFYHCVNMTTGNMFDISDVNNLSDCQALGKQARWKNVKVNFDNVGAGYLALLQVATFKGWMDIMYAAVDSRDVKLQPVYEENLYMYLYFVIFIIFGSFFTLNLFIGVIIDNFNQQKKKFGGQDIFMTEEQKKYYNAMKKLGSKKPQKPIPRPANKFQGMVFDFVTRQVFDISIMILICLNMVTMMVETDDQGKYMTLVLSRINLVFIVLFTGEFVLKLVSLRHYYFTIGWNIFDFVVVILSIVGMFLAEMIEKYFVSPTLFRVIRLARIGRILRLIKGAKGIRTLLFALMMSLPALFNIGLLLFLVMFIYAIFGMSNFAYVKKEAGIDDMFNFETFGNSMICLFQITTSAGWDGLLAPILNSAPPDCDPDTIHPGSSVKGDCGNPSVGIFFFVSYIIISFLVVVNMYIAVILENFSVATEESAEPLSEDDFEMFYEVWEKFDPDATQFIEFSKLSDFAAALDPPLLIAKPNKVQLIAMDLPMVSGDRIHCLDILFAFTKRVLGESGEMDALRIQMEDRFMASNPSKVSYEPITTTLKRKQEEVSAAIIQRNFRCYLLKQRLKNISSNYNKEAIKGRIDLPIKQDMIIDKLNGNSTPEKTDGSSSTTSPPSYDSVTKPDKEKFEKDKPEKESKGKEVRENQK

O=C(NCCCCc1ccccc1)c1cccs1 [Compound 1, thiophene-2-carboxylic acid (4-phenyl-butyl)-amide]
Reduction in allodynia with respect to a vehicle control [1]: 80%
Block of persistent current [2, 4]: 99%
Reduction of transient current [2, 4]: 16%
Hillslope, persistent current (Ip) ([2]; Hill equation fit, FIG. 5): 0.733
Hillslope, transient Na+ current (It) ([2]; Hill equation fit, FIG. 5): 0.354

CCCCNc1ccc(C(=O)OCCN(C)C)cc1 [Tetracaine, tetracaine]
Inhibition of Na+-dependent change in Rf/Ri (depolarization) [3]: inhibited
